From article doi:10.1101/2025.08.29.673196v2, “Development and characterization of Novel Small Molecule Inhibitors Targeting LAG-3 Protein” (biorxiv, 2025)

Biological target: T1, LAG-3 (biotinylated LAG-3 of HTRF LAG-3/MHCII binding assay) (Homo sapiens, UniProt P18627)
T1 construct: gene LAG3; biotinylated LAG-3 reagent of Revvity HTRF LAG-3/MHCII kit
T1 sequence (P18627 23-450 limits assumed): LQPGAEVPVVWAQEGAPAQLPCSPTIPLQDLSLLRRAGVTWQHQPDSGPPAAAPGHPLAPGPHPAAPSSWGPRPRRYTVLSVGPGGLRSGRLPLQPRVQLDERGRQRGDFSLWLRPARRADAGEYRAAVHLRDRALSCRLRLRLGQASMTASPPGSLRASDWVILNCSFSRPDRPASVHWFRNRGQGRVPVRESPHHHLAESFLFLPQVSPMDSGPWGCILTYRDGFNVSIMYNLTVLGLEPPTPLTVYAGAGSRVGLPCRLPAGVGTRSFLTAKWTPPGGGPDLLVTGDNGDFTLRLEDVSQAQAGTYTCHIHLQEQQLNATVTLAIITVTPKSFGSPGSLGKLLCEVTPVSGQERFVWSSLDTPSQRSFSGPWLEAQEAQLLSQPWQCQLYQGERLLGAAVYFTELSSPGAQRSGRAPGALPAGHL
Experiment: HTRF LAG-3/MHCII binding inhibition

Row | IC50 [nM] | SMILES
1 | 21000 | Cc1cc(=O)oc2cc(NC(=O)c3cc(NC(=O)c4ccccc4)ccc3Oc3ccc(C(=O)O)cc3)ccc12 [LG-125]
2 | 602 | Cc1cc(=O)oc2cc(NC(=O)c3cc(NC(=O)c4cccc(C5(C(F)(F)F)CCC5)c4)ccc3Oc3ccc(C(=O)O)cc3)ccc12 [LG-131]
3 | 371 | COc1ccc(OC)c(NC(=O)C(=O)Nc2ccc(Oc3ccc(C(=O)O)cc3)c(C(=O)Nc3ccc4c(C)cc(=O)oc4c3)c2)c1 [LG-164]
4 | 467 | Cc1cc(=O)oc2cc(NC(=O)c3cc(NS(=O)(=O)N4CCC(c5ccccc5)CC4)ccc3Oc3ccc(C(=O)O)cc3)ccc12 [LG-193]
